Consider 19 compounds from patent US20210214375A1 (LUNDBECK LA JOLLA RESEARCH CENTER, INC., priority 2017, published 2021).

The target of one assay is T1, MAGL (Mus musculus, UniProt O35678).
T1 construct: from tissue; host or cells: brain of wild-type C57Bl/6J mice
T1 sequence (O35678 1-303): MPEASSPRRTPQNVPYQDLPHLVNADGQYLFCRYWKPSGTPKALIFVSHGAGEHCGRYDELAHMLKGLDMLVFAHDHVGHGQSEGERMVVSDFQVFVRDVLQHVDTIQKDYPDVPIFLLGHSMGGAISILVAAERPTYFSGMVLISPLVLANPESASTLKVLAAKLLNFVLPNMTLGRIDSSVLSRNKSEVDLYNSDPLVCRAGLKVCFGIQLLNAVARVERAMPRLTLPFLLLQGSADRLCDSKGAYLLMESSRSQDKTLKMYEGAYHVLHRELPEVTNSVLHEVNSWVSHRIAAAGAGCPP
Nature of the assay: Mouse brain proteomes from inhibitor treated mice (oral gavage, brain proteomes analyzed 4 h after administration). The class given is in vivo, mouse (C57Bl/6J). The settings on record: brain proteome 4 h after administration, read-out: % Inh 5 mg/kg MGLL (Mouse). The method in brief: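 Wild-type C57Bl/6J mice dosed orally in polyethylene glycol vehicle; brains removed 4 h post-dose and brain proteomes prepared and analysed for MAGL and serine hydrolase activity by previously established methods.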

A further assay has as its target T2, MGLL (Mus musculus, UniProt O35678).
T2 construct: Brain; from tissue; host or cells: mouse brain proteome
T2 sequence (O35678 1-303): T1 sequence (O35678 1-303)
Nature of the assay: In vitro competitive activity-based protein profiling, mouse brain proteome. It is filed as biochemical. The protocol: [Worded in the source for another species; this species is reported under the same test.] (§1) Proteomes (human prefrontal cortex or cell membrane fractions) (50 μL, 1.0 mg/mL total protein concentration) were preincubated with varying concentrations of inhibitors at 37° C. After 30 min, FP—Rh or HT-01 (1.0 μL, 50 μM in DMSO) was added and the mixture was incubated for another 30 min at room temperature. Reactions were quenched with SDS loading buffer (15 μL-4×) and run on SDS-PAGE.

A further assay addresses T3, ABHD6 (Mus musculus, UniProt Q8R2Y0).
T3 construct: Brain; from tissue; host or cells: mouse brain proteome
T3 sequence (Q8R2Y0 1-336): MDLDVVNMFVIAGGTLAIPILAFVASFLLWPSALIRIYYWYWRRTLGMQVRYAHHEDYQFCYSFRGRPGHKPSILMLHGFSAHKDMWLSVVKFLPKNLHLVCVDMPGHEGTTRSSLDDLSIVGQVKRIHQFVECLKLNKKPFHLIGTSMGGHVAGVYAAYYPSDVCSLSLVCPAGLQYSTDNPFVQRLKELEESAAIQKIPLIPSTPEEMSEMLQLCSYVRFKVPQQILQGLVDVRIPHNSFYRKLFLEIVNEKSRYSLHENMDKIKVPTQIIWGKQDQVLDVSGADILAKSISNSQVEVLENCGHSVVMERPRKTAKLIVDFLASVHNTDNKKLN
Put plainly: In vitro competitive activity-based protein profiling, mouse brain proteome, ABHD6. The settings on record: mouse. It is filed as biochemical. On the procedure:
[Worded in the source for another target; this target is reported under the same test.] as §1

Some results are limits rather than exact numbers.

Usually IC50 stands for the point on the concentration scale where inhibition reaches its midpoint. Take `CS(=O)(=O)N1CCC2(CCN(c3cccc(Cl)c3CN3CC4(CCN(C(=O)OC(C(F)(F)F)C(F)(F)F)CC4)C3)CC2)C1` [Example 61, 1,1,1,3,3,3-Hexafluoropropan-2-yl 2-(2-chloro-6-(2-(methylsulfonyl)-2,8-diazaspiro[4.5]decan-8-yl)benzyl)-2,7-diazaspiro[3.5]nonane-7-carboxylate]: at MAGL, the inhibition at 5 mg/kg lay within 25 to 75%. Further, the IC50 on MGLL was under 100 nM; on ABHD6 it was 100 to 1000 nM.

Turning to `CS(=O)(=O)N1CCC2(CCN(c3cccc(C(F)(F)F)c3CN3CC4(CCN(C(=O)OC(C(F)(F)F)C(F)(F)F)CC4)C3)CC2)C1` [Example 62, 1,1,1,3,3,3-Hexafluoropropan-2-yl 2-(2-(2-(methylsulfonyl)-2,8-diazaspiro[4.5]decan-8-yl)-6-(trifluoromethyl)benzyl)-2,7-diazaspiro[3.5]nonane-7-carboxylate], the inhibition at 5 mg/kg on MAGL lay within 25 to 75%. The values for the IC50 on MGLL and at ABHD6 were under 100 nM and over 1000 nM, respectively.

Consider `CN(Cc1ccc(C(F)(F)F)cc1N1CCOCC1)C1(C)CCN(C(=O)OC(C(F)(F)F)C(F)(F)F)CC1` [Example 63, 1,1,1,3,3,3-Hexafluoropropan-2-yl 4-methyl-4-(methyl(2-morpholino-4-(trifluoromethyl)benzyl)amino) piperidine-1-carboxylate], for which the inhibition at 5 mg/kg at MAGL is at least 75%. Moreover, the IC50 at MGLL is under 100 nM; at ABHD6, over 1000 nM.

For `O=C(OC(C(F)(F)F)C(F)(F)F)N1CCC2(CC1)CN(Cc1ccc(C(F)(F)F)cc1)C2` [Example 69, 1,1,1,3,3,3-Hexafluoropropan-2-yl 2-(4-(trifluoromethyl)benzyl)-2,7-diazaspiro[3.5]nonane-7-carboxylate], the inhibition at 5 mg/kg at MAGL was at least 75%. Also, the IC50 at MGLL and at ABHD6 was under 100 nM in each case.

Regarding `CN(Cc1ccc(C(F)(F)F)cc1N1CCCC1)C1(C)CCN(C(=O)OC(C(F)(F)F)C(F)(F)F)CC1` [Example 72, 1,1,1,3,3,3-Hexafluoropropan-2-yl 4-methyl-4-(methyl(2-(pyrrolidin-1-yl)-4-(trifluoromethyl)benzyl)amino) piperidine-1-carboxylate], the inhibition at 5 mg/kg at MAGL was at least 75%. The results for the IC50 on MGLL and at ABHD6 were under 100 nM and over 1000 nM, respectively.

In the case of `O=C(OC(C(F)(F)F)C(F)(F)F)N1CCC2(CC1)CN(Cc1ccc(C(F)(F)F)cc1N1CCCC1)C2` [Example 151, 1,1,1,3,3,3-Hexafluoropropan-2-yl 2-(2-(pyrrolidin-1-yl)-4-(trifluoromethyl)benzyl)-2,7-diazaspiro[3.5]nonane-7-carboxylate], at MAGL, the inhibition at 5 mg/kg was at least 75%. For the same compound, the IC50 is under 100 nM at MGLL and 100 to 1000 nM at ABHD6.

Take `CS(=O)(=O)N1CCC2(CCN(c3ccccc3CN3CCN(C(=O)OC(C(F)(F)F)C(F)(F)F)CC3)C2)C1` (stereo not drawn) [Example 165, 1,1,1,3,3,3-Hexafluoropropan-2-yl 4-(2-(7-(methylsulfonyl)-2,7-diazaspiro[4.4]nonan-2-yl)benzyl)piperazine-1-carboxylate]: at MAGL, the inhibition at 5 mg/kg was at least 75%. The values for the half-maximal inhibitory concentration (IC50) at MGLL and at ABHD6 were under 100 nM and over 1000 nM, respectively.

With `CC(=O)N1CCC2(CCN(c3ccccc3CN3CCN(C(=O)OC(C(F)(F)F)C(F)(F)F)CC3)C2)C1` (stereo not drawn) [Example 166, 1,1,1,3,3,3-Hexafluoropropan-2-yl 4-(2-(7-acetyl-2,7-diazaspiro[4.4]nonan-2-yl)benzyl)piperazine-1-carboxylate], the inhibition at 5 mg/kg at MAGL was at most 25%. In addition, the IC50 was under 100 nM at MGLL and over 1000 nM at ABHD6.

As for `CS(=O)(=O)N1CC2(CCN(c3ccccc3CN3CCN(C(=O)OC(C(F)(F)F)C(F)(F)F)CC3)C2)C1` [Example 167, 1,1,1,3,3,3-Hexafluoropropan-2-yl 4-(2-(2-(methylsulfonyl)-2,6-diazaspiro[3.4]octan-6-yl)benzyl)piperazine-1-carboxylate], on MAGL, the inhibition at 5 mg/kg is at least 75%. In addition, the IC50 on MGLL is under 100 nM; at ABHD6, over 1000 nM.

Regarding `O=C(OC(C(F)(F)F)C(F)(F)F)N1CCC2(CCN(Cc3cccc(Cl)c3N3CCCC3)CC2)C1` [Example 171, 1,1,1,3,3,3-Hexafluoropropan-2-yl 8-(3-chloro-2-(pyrrolidin-1-yl)benzyl)-2,8-diazaspiro[4.5]decane-2-carboxylate], the inhibition at 5 mg/kg at MAGL was at least 75%. The results for the IC50 at MGLL and at ABHD6 were under 100 nM and over 1000 nM, respectively.

As to `CS(=O)(=O)N1CC2(CCN(c3cc(Cl)ccc3CN3CCN(C(=O)OC(C(F)(F)F)C(F)(F)F)CC3)C2)C1` [Example 175, 1,1,1,3,3,3-Hexafluoropropan-2-yl 4-(4-chloro-2-(2-(methylsulfonyl)-2,6-diazaspiro[3.4]octan-6-yl)benzyl)piperazine-1-carboxylate], at MAGL, the inhibition at 5 mg/kg was at least 75%. The IC50 at MGLL was under 100 nM; at ABHD6, over 1000 nM.

Turning to `CC(=O)N1CC2(CCN(c3cc(Cl)ccc3CN3CCN(C(=O)OC(C(F)(F)F)C(F)(F)F)CC3)C2)C1` [Example 176, 1,1,1,3,3,3-Hexafluoropropan-2-yl 4-(2-(2-acetyl-2,6-diazaspiro[3.4]octan-6-yl)-4-chlorobenzyl) piperazine-1-carboxylate], the inhibition at 5 mg/kg on MAGL was at least 75%. The IC50 was under 100 nM on MGLL and over 1000 nM on ABHD6.

With `CN1CCC2(CCN(c3cc(Cl)ccc3CN3CCN(C(=O)OC(C(F)(F)F)C(F)(F)F)CC3)CC2)C1` [Example 177, 1,1,1,3,3,3-Hexafluoropropan-2-yl 4-(4-chloro-2-(2-methyl-2,8-diazaspiro[4.5]decan-8-yl)benzyl)piperazine-1-carboxylate], on MAGL, the inhibition at 5 mg/kg was 25 to 75%. The IC50 on MGLL was under 100 nM; at ABHD6, over 1000 nM.

On to `CC(=O)N1CCC2(CCN(c3cc(Cl)ccc3CN3CCN(C(=O)OC(C(F)(F)F)C(F)(F)F)CC3)CC2)C1` [Example 178, 1,1,1,3,3,3-Hexafluoropropan-2-yl 4-(2-(2-acetyl-2,8-diazaspiro[4.5]decan-8-yl)-4-chlorobenzyl) piperazie-1-carboxylate], for which the inhibition at 5 mg/kg on MAGL was at least 75%. The IC50 is under 100 nM at MGLL and over 1000 nM at ABHD6.

On to `CN1CC2(CCN(c3cc(C(F)(F)F)ccc3CN3CCN(C(=O)OC(C(F)(F)F)C(F)(F)F)CC3)C2)C1` [Example 179, 1,1,1,3,3,3-Hexafluoropropan-2-yl 4-(2-(2-methyl-2,6-diazaspiro[3.4]octan-6-yl)-4-(trifluoromethyl)benzyl)piperazine-1-carboxylate], for which the inhibition at 5 mg/kg on MAGL is at least 75%. Besides, the IC50 at MGLL is under 100 nM; at ABHD6, over 1000 nM.

With `O=C(OC(C(F)(F)F)C(F)(F)F)N1CCC2(CCN(Cc3ccc(Cl)cc3N3CCOCC3)CC2)C1` [Example 181, 1,1,1,3,3,3-Hexafluoropropan-2-yl 8-(4-chloro-2-molpholinobenzyl)-2,8-diazaspiro[4.5]decane-2-carboxylate], the inhibition at 5 mg/kg on MAGL is at least 75%. Also, the IC50 at MGLL is under 100 nM; on ABHD6, over 1000 nM.

Consider `CN1CCC2(CCN(c3cc(C(F)(F)F)ccc3CN3CCN(C(=O)OC(C(F)(F)F)C(F)(F)F)CC3)CC2)C1` [Example 182, 1,1,1,3,3,3-Hexafluoropropan-2-yl 4-(2-(2-methyl-2,8-diazaspiro[4.5]decan-8-yl)-4-(trifluoromethyl)benzyl)piperazine-1-carboxylate], for which the inhibition at 5 mg/kg on MAGL was at most 25%. Also, the IC50 was under 100 nM on MGLL and over 1000 nM on ABHD6.

In the case of `CCN1CC2(CCN(c3cc(C(F)(F)F)ccc3CN3CCN(C(=O)OC(C(F)(F)F)C(F)(F)F)CC3)C2)C1` [Example 184, 1,1,1,3,3,3-Hexafluoropropan-2-yl 4-(2-(2-ethyl-2,6-diazaspiro[3.4]octan-6-yl)-4-(trifluoromethyl)benzyl)piperazine-1-carboxylate], the inhibition at 5 mg/kg on MAGL is at most 25%. Moreover, the IC50 at MGLL is under 100 nM; at ABHD6 it was over 1000 nM.

As for `O=C(OC(C(F)(F)F)C(F)(F)F)N1CCC2(CCN(Cc3ccc(C(F)(F)F)cc3N3CCCCC3)CC2)C1` [Example 187, 1,1,1,3,3,3-Hexafluoropropan-2-yl 8-(2-(piperidin-1-yl)-4-(trifluoromethyl)benzyl)-2,8-diazaspiro[4.5]decane-2-carboxylate], the inhibition at 5 mg/kg at MAGL was at least 75%. The IC50 on MGLL was under 100 nM; at ABHD6 it was over 1000 nM.
